# Read-outs that look alike come from different tables or passages of the source.
# Columns and labels:
# K-562 [1] = tested on: K-562
# MOLT-4 [2] = tested on: MOLT-4
# HL-60(TB) [3] = tested on: HL-60(TB)
# MOLT-4 [4] = assay: NCI DTP in-vitro dose response, Leukemia
# HL-60(TB) [5] = assay: NCI DTP in-vitro dose response, Leukemia
# CCRF-CEM [6] = tested on: CCRF-CEM
# RPMI-8226 [7] = tested on: RPMI-8226
# CCRF-CEM [8] = assay: NCI DTP in-vitro dose response, Leukemia
# K-562 [9] = assay: NCI DTP in-vitro dose response, Leukemia
# RPMI-8226 [10] = assay: NCI DTP in-vitro dose response, Leukemia
# UO-31 = assay: in vitro test at 1.0×10^−5 M, Kidney cancer cell; assay type: cell-based; settings: 1.0×10^−5 molal concentration (M)
# IGROV1 = assay: in vitro test at 1.0×10^−5 M, Ovary cancer cell; assay type: cell-based; settings: 1.0×10^−5 molal concentration (M)
# MOLT-4 [11] = assay: in vitro test at 1.0×10^−5 M, Blood cancer cell; assay type: cell-based; settings: 1.0×10^−5 molal concentration (M)
# [12] = tested on: different cancer cell lines; assay: in vitro test at 1.0×10^−5 M, summary over the cell lines; assay type: cell-based; design: unit not given here; settings: 1.0×10^−5 molal concentration (M)
# T-47D = assay: in vitro test at 1.0×10^−5 M, Breast cancer cell; assay type: cell-based; settings: 1.0×10^−5 molal concentration (M)
# MDA-MB-435 = assay: in vitro test at 1.0×10^−5 M, Breast cancer cell; assay type: cell-based; settings: 1.0×10^−5 molal concentration (M)
# SK-MEL-2 = assay: in vitro test at 1.0×10^−5 M, Skin cancer cell; assay type: cell-based; settings: 1.0×10^−5 molal concentration (M)
# MDA-MB-468 = assay: in vitro test at 1.0×10^−5 M, Breast cancer cell; assay type: cell-based; settings: 1.0×10^−5 molal concentration (M)
# U251 = assay: in vitro test at 1.0×10^−5 M, CNS cancer cell; assay type: cell-based
# HOP-92 [13] = assay: in vitro test at 1.0×10^−5 M, Non-small cell lung cancer cell; assay type: cell-based; settings: 1.0×10^−5 molal concentration (M)
# HCC-2998 = assay: in vitro test at 1.0×10^−5 M, Colorectal cancer cell; assay type: cell-based; settings: 1.0×10^−5 molal concentration (M)
# LOX IMV1 = assay: in vitro test at 1.0×10^−5 M, Skin cancer cell; assay type: cell-based; settings: 1.0×10^−5 molal concentration (M)
# MALME-3M = assay: in vitro test at 1.0×10^−5 M, Skin cancer cell; assay type: cell-based; settings: 1.0×10^−5 molal concentration (M)
# UACC-62 = assay: in vitro test at 1.0×10^−5 M, Skin cancer cell; assay type: cell-based; settings: 1.0×10^−5 molal concentration (M)
# MCF7 = assay: in vitro test at 1.0×10^−5 M, Breast cancer cell; assay type: cell-based; settings: 1.0×10^−5 molal concentration (M)
# SF-539 = assay: in vitro test at 1.0×10^−5 M, CNS cancer cell; assay type: cell-based
# OVCAR-4 = assay: in vitro test at 1.0×10^−5 M, Ovary cancer cell; assay type: cell-based; settings: 1.0×10^−5 molal concentration (M)
# UACC-257 = assay: in vitro test at 1.0×10^−5 M, Skin cancer cell; assay type: cell-based; settings: 1.0×10^−5 molal concentration (M)
# SN12C = assay: in vitro test at 1.0×10^−5 M, Kidney cancer cell; assay type: cell-based; settings: 1.0×10^−5 molal concentration (M)
# ACHN = assay: in vitro test at 1.0×10^−5 M, Kidney cancer cell; assay type: cell-based; settings: 1.0×10^−5 molal concentration (M)
# HOP-62 [14] = tested on: HOP-62
# NCI-H23 [15] = tested on: NCI-H23
# NCI-H522 [16] = tested on: NCI-H522
# HOP-92 [17] = tested on: HOP-92
# A549/ATCC [18] = tested on: A549/ATCC
# NCI-H460 [19] = tested on: NCI-H460
# HOP-62 [20] = tested on: HOP-62; remark: listed apart in the source
# NCI-H23 [21] = tested on: NCI-H23; remark: listed apart in the source
# HOP-92 [22] = tested on: HOP-92; remark: listed apart in the source
# NCI-H226 [23] = tested on: NCI-H226
# NCI-H226 [24] = tested on: NCI-H226; remark: listed apart in the source
# A549/ATCC [25] = tested on: A549/ATCC; remark: listed apart in the source
# NCI-H522 [26] = tested on: NCI-H522; remark: listed apart in the source
# EKVX [27] = tested on: EKVX
# NCI-H460 [28] = tested on: NCI-H460; remark: listed apart in the source
# EKVX [29] = tested on: EKVX; remark: listed apart in the source
smiles,measurement,setting,value
O=C1c2ccccc2C(=O)c2c1ccc1nccnc21 [TABLE 5-1],GI50,K-562 [1],0.0683 µM
same,TGI,K-562 [1],>1.00E−4
same,Percent Growth,K-562 [1]; Log10 Concentration −4.0,10%
same,Percent Growth,K-562 [1]; Log10 Concentration −5.0,17%
same,Percent Growth,K-562 [1]; Log10 Concentration −6.0,30%
same,Percent Growth,K-562 [1]; Log10 Concentration −7.0,41%
same,Percent Growth,K-562 [1]; Log10 Concentration −8.0,94%
same,GI50,MOLT-4 [2],3.65 µM
same,TGI,MOLT-4 [2],>1.00E−4
same,Percent Growth,MOLT-4 [2]; Log10 Concentration −4.0,4%
same,Percent Growth,MOLT-4 [2]; Log10 Concentration −5.0,33%
same,Percent Growth,MOLT-4 [2]; Log10 Concentration −6.0,72%
same,Percent Growth,MOLT-4 [2]; Log10 Concentration −7.0,81%
same,Percent Growth,MOLT-4 [2]; Log10 Concentration −8.0,89%
same,GI50,HL-60(TB) [3],0.677 µM
same,TGI,HL-60(TB) [3],1.15E−5
same,Percent Growth,HL-60(TB) [3]; Log10 Concentration −4.0,−54%
same,Percent Growth,HL-60(TB) [3]; Log10 Concentration −5.0,3%
same,Percent Growth,HL-60(TB) [3]; Log10 Concentration −6.0,47%
same,Percent Growth,HL-60(TB) [3]; Log10 Concentration −7.0,67%
same,Percent Growth,HL-60(TB) [3]; Log10 Concentration −8.0,83%
same,CC50,MOLT-4 [4],> 100 µM
same,CC50,HL-60(TB) [5],83.7 µM
same,GI50,CCRF-CEM [6],2.46 µM
same,TGI,CCRF-CEM [6],>1.00E−4
same,Percent Growth,CCRF-CEM [6]; Log10 Concentration −4.0,20%
same,Percent Growth,CCRF-CEM [6]; Log10 Concentration −5.0,22%
same,Percent Growth,CCRF-CEM [6]; Log10 Concentration −6.0,68%
same,Percent Growth,CCRF-CEM [6]; Log10 Concentration −7.0,91%
same,Percent Growth,CCRF-CEM [6]; Log10 Concentration −8.0,90%
same,GI50,RPMI-8226 [7],1.61 µM
same,TGI,RPMI-8226 [7],>1.00E−4
same,Percent Growth,RPMI-8226 [7]; Log10 Concentration −4.0,12%
same,Percent Growth,RPMI-8226 [7]; Log10 Concentration −5.0,30%
same,Percent Growth,RPMI-8226 [7]; Log10 Concentration −6.0,55%
same,Percent Growth,RPMI-8226 [7]; Log10 Concentration −7.0,81%
same,Percent Growth,RPMI-8226 [7]; Log10 Concentration −8.0,90%
same,CC50,CCRF-CEM [8],> 100 µM
same,CC50,K-562 [9],> 100 µM
same,CC50,RPMI-8226 [10],> 100 µM
"CC1(C)Nc2ccc3c(c2N1)C(=O)c1ccccc1C3=O [No. 20, 2,2-Dimethyl-2,3-dihydro-1H-anthra[1,2-d]imidazole-6,11-dione]",inhibition effect on cancer cell line (Table 2 value),UO-31,30.65
same,inhibition effect on cancer cell line (Table 2 value),IGROV1,−2.80
same,inhibition effect on cancer cell line (Table 2 value),MOLT-4 [11],116.41
same,Mean,[12],80.41
same,inhibition effect on cancer cell line (Table 2 value),T-47D,82.96
same,inhibition effect on cancer cell line (Table 2 value),MDA-MB-435,124.56
same,inhibition effect on cancer cell line (Table 2 value),SK-MEL-2,8.04
same,inhibition effect on cancer cell line (Table 2 value),MDA-MB-468,77.25
same,inhibition effect on cancer cell line (Table 2 value),U251,87.84
same,inhibition effect on cancer cell line (Table 2 value),HOP-92 [13],5.10
same,inhibition effect on cancer cell line (Table 2 value),HCC-2998,136.96
same,inhibition effect on cancer cell line (Table 2 value),LOX IMV1,61.88
same,inhibition effect on cancer cell line (Table 2 value),MALME-3M,155.47
same,inhibition effect on cancer cell line (Table 2 value),UACC-62,67.58
same,inhibition effect on cancer cell line (Table 2 value),MCF7,83.58
same,inhibition effect on cancer cell line (Table 2 value),SF-539,93.56
same,inhibition effect on cancer cell line (Table 2 value),OVCAR-4,80.14
same,inhibition effect on cancer cell line (Table 2 value),UACC-257,118.22
same,inhibition effect on cancer cell line (Table 2 value),SN12C,91.98
same,inhibition effect on cancer cell line (Table 2 value),ACHN,50.17
O=C1c2ccccc2C(=O)c2c1ccc1nccnc21 [TABLE 5-2],CC50,HOP-62 [14],> 100 µM
same,CC50,NCI-H23 [15],> 100 µM
same,GI50,NCI-H522 [16],4.64 µM
same,TGI,NCI-H522 [16],3.25E−5
same,Percent Growth,NCI-H522 [16]; Log10 Concentration −4.0,−33%
same,Percent Growth,NCI-H522 [16]; Log10 Concentration −5.0,35%
same,Percent Growth,NCI-H522 [16]; Log10 Concentration −6.0,81%
same,Percent Growth,NCI-H522 [16]; Log10 Concentration −7.0,86%
same,Percent Growth,NCI-H522 [16]; Log10 Concentration −8.0,89%
same,CC50,HOP-92 [17],> 100 µM
same,GI50,A549/ATCC [18],4.53 µM
same,TGI,A549/ATCC [18],>1.00E−4
same,Percent Growth,A549/ATCC [18]; Log10 Concentration −4.0,3%
same,Percent Growth,A549/ATCC [18]; Log10 Concentration −5.0,36%
same,Percent Growth,A549/ATCC [18]; Log10 Concentration −6.0,77%
same,Percent Growth,A549/ATCC [18]; Log10 Concentration −7.0,95%
same,Percent Growth,A549/ATCC [18]; Log10 Concentration −8.0,93%
same,GI50,NCI-H460 [19],2.01 µM
same,TGI,NCI-H460 [19],2.69E−5
same,Percent Growth,NCI-H460 [19]; Log10 Concentration −4.0,−22%
same,Percent Growth,NCI-H460 [19]; Log10 Concentration −5.0,17%
same,Percent Growth,NCI-H460 [19]; Log10 Concentration −6.0,65%
same,Percent Growth,NCI-H460 [19]; Log10 Concentration −7.0,95%
same,Percent Growth,NCI-H460 [19]; Log10 Concentration −8.0,98%
same,GI50,HOP-62 [20],5.64 µM
same,TGI,HOP-62 [20],>1.00E−4
same,Percent Growth,HOP-62 [20]; Log10 Concentration −4.0,3%
same,Percent Growth,HOP-62 [20]; Log10 Concentration −5.0,40%
same,Percent Growth,HOP-62 [20]; Log10 Concentration −6.0,81%
same,Percent Growth,HOP-62 [20]; Log10 Concentration −7.0,82%
same,Percent Growth,HOP-62 [20]; Log10 Concentration −8.0,92%
same,GI50,NCI-H23 [21],12 µM
same,TGI,NCI-H23 [21],7.03E−5
same,Percent Growth,NCI-H23 [21]; Log10 Concentration −4.0,−10%
same,Percent Growth,NCI-H23 [21]; Log10 Concentration −5.0,55%
same,Percent Growth,NCI-H23 [21]; Log10 Concentration −6.0,84%
same,Percent Growth,NCI-H23 [21]; Log10 Concentration −7.0,87%
same,Percent Growth,NCI-H23 [21]; Log10 Concentration −8.0,92%
same,GI50,HOP-92 [22],22.5 µM
same,TGI,HOP-92 [22],>1.00E−4
same,Percent Growth,HOP-92 [22]; Log10 Concentration −4.0,8%
same,Percent Growth,HOP-92 [22]; Log10 Concentration −5.0,73%
same,Percent Growth,HOP-92 [22]; Log10 Concentration −6.0,78%
same,Percent Growth,HOP-92 [22]; Log10 Concentration −7.0,83%
same,Percent Growth,HOP-92 [22]; Log10 Concentration −8.0,95%
same,CC50,NCI-H226 [23],> 100 µM
same,GI50,NCI-H226 [24],16.6 µM
same,TGI,NCI-H226 [24],9.52E−5
same,Percent Growth,NCI-H226 [24]; Log10 Concentration −4.0,−1%
same,Percent Growth,NCI-H226 [24]; Log10 Concentration −5.0,64%
same,Percent Growth,NCI-H226 [24]; Log10 Concentration −6.0,73%
same,Percent Growth,NCI-H226 [24]; Log10 Concentration −7.0,81%
same,Percent Growth,NCI-H226 [24]; Log10 Concentration −8.0,86%
same,CC50,A549/ATCC [25],> 100 µM
same,CC50,NCI-H522 [26],> 100 µM
same,CC50,EKVX [27],> 100 µM
same,CC50,NCI-H460 [28],> 100 µM
same,GI50,EKVX [29],3.45 µM
same,TGI,EKVX [29],7.21E−5
same,Percent Growth,EKVX [29]; Log10 Concentration −4.0,−4%
same,Percent Growth,EKVX [29]; Log10 Concentration −5.0,25%
same,Percent Growth,EKVX [29]; Log10 Concentration −6.0,79%
same,Percent Growth,EKVX [29]; Log10 Concentration −7.0,89%
same,Percent Growth,EKVX [29]; Log10 Concentration −8.0,101%

# Source: patent US8445492B2, “Method for inhibiting growth of cancer cells and cell telomere and diseases of cell proliferation by using heteroannelated anthraquinone derivative compounds” (National Defense Medical Center, priority 2008, dated 2013)
